# Measured values reported in patent US20100266681A1, “FATTY ACID ALCOHOLS” (priority 2006, published 2010).
# Tested on: APOE*3Leiden mice
# Assay: Effects on lipid metabolism in vivo, APOE*3Leiden mice on Western-type diet
# Settings: female heterozygous APOE*3Leiden mice, oral admix to Western-type diet, plasma after 4 hour fast, delta = level at t=0 minus level at t=3, doses 565 (Group 2), 497 (Group 3), 1 (Group 4) mg/kg bw/d
# Experimental: The invented compositions were tested in an animal model as described below.
# Female heterozygous APOE*3Leiden mice was used, and housed during the experiment in macrolon cages (three or four mice per cage), in clean-conventional animal rooms (relative humidity 50-60%, temperature ˜21° C., light cycle 7 am to 7 pm). Individual animals were marked by ear punch-holes. Mice were supplied with food and acidified tap water ad libitum.
# The mice received a semi-synthetic modified Western-type diet (WTD) as described by Nishina et al (J Lipid Res 1990; 31: 859), containing cholesterol (0.25% w/w, final concentration) and 15% cacaobutter.
# All test compounds were administered orally as admix to the Western-type diet. The lyophilized diet chunks were stored in vacuum bags in the dark in an alarm-secured −20° C. room. The diets on the cages of the mice were changed twice a week.
# APOE*3Leiden mice were put on a semi-synthetic Western-type diet (WTD, 15% cocoa butter, 40% sucrose and 0.25% cholesterol; all w/w). After a 4 weeks run-in period low-responder mice were removed from the study and the remaining mice were sub-divided into five groups of 10 mice each, matched for plasma cholesterol, triglycerides, free fatty acids and age (t=0) […]
# After 3 weeks of treatment (t=3 weeks) blood samples were taken after 4 hour-fast period and plasma total cholesterol (TC), total triglycerides (TG) were measured. […]
smiles,measurement,value
"CC(C)OC(=O)C(C)(C)Oc1ccc(C(=O)c2ccc(Cl)cc2)cc1 [Group 4, Fenofibrate]","Delta cholesterol plasma levels (delta TC) after treatment period of 3 weeks, Mean (delta TC)",4.71
same,"Delta triglyceride plasma levels (delta TG) after treatment period of 3 weeks, Mean (delta TG)",1.16
